# In paper PMC11149885 (PLOS ONE, 2024):
# Values joined by “and” are separate entries in the source; they are usually repeats but may differ in a detail not shown here. Equal values may be shown once.
# Experiments:
# [1] = test system: VEGF-induced angiogenesis on the CAM; assay: Gelatin sponge chick chorioallantoic membrane (CAM) assay; settings: for Angiogenesis - Vessel thickness score, Mean: score 0-3; for Angiogenesis - Vessel thickness score, individual egg: score 0-3, one value per egg
# VEGFR2 [2] = biological target: T1, VEGFR2 (Homo sapiens, UniProt P35968); assay: HotSpot kinase screen; format: biochemical; settings: 10μM ATP
# T1 construct: purchased Millipore Corporation (Dundee, Scotland) or Reaction Biology Corporation (contract assay)
# T1 sequence (P35968 20-1356): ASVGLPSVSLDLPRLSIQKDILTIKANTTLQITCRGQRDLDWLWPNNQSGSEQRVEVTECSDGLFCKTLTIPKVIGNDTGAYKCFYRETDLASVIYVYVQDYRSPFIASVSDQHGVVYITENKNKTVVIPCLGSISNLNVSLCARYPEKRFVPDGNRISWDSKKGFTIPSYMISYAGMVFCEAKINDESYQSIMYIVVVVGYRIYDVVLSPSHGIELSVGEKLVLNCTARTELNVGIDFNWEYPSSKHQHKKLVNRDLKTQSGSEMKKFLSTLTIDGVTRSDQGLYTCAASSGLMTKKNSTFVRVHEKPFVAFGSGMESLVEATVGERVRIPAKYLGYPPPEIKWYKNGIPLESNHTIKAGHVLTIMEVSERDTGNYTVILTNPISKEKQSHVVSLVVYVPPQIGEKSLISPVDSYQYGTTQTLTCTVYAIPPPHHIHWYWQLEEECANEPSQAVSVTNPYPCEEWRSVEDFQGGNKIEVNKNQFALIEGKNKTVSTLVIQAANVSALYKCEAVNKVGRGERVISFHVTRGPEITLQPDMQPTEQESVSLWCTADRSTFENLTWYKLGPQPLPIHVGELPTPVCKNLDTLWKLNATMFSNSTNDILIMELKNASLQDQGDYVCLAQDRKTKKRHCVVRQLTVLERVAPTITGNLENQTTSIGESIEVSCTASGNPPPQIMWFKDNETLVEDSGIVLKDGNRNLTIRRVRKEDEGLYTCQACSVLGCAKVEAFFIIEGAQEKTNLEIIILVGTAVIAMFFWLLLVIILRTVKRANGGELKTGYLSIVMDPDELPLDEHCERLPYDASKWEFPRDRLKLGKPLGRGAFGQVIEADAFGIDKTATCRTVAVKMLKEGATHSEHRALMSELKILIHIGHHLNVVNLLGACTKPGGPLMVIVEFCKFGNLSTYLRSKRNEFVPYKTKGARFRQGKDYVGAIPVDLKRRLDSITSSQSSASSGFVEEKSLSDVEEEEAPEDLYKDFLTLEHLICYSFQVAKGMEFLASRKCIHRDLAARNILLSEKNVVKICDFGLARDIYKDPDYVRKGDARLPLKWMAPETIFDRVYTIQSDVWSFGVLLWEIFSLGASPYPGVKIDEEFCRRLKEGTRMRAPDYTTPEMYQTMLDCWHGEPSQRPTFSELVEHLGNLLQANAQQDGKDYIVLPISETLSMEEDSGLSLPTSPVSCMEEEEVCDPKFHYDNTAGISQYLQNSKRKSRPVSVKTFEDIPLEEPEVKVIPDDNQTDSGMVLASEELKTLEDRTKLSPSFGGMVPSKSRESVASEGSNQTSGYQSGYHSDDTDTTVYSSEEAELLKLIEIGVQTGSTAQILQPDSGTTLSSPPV
# FGFR2 = biological target: T2, FGFR2 (Homo sapiens, UniProt P21802); assay: HotSpot kinase screen; format: biochemical; settings: 10μM ATP
# T2 construct: purchased Reaction Biology Corporation (contract assay)
# Experimental: (§1) Measurement of kinase activity was performed by Reaction Biology Corporation (Reaction Biology Corporation, Malvern, PA), using the HotSpot™ assay. The screen focused on RTKs reported in the literature to play a major role in the regulation of angiogenesis (VEGFR1, VEGFR2, and VEGFR3; fibroblast growth factor receptor [FGFR] 1, 2, and 3; and platelet-derived growth factor receptor beta [PDGFRβ]) as well as an RTK essential for maintaining blood vessel stability (TIE2). For the profiling, specific kinase/substrate pairs and required cofactors were prepared in a reaction buffer (20mM Hepes [pH 7.5], 10mM MgCl2, 1mM EGTA, 0.02% Brij35, 0.02 mg/mL BSA, 0.1mM Na3VO4, 2mM DTT, 1% dimethyl sulfoxide [DMSO]). TKI compounds were diluted to 10μM and 1μM concentrations for the screens and after addition to the reaction buffer incubated for 20 minutes, followed by the addition of a mixture of ATP (Sigma, St. Louis, MO) and ^33P-ATP (Perkin Elmer, Waltham, MA) to a final ATP concentration of 10μM. Reactions were carried out at room temperature for 2 hours, followed by spotting of the reactions onto P81 ion exchange filter paper (Whatman Inc., Piscataway, NJ). Unbound phosphate was removed by extensive washing of the filters. […] Kinome TREEspot images representing levels of inhibition were prepared using Kinome Mapper (https://www.reactionbiology.com/resources/tools/kinase-mapper).
# VEGFR3 [3] = biological target: T3, VEGFR3 (Homo sapiens, UniProt P35916); assay: HotSpot kinase screen; format: biochemical; settings: 10μM ATP
# T3 construct: purchased Millipore Corporation (Dundee, Scotland) or Reaction Biology Corporation (contract assay)
# T3 sequence (P35916 25-1363): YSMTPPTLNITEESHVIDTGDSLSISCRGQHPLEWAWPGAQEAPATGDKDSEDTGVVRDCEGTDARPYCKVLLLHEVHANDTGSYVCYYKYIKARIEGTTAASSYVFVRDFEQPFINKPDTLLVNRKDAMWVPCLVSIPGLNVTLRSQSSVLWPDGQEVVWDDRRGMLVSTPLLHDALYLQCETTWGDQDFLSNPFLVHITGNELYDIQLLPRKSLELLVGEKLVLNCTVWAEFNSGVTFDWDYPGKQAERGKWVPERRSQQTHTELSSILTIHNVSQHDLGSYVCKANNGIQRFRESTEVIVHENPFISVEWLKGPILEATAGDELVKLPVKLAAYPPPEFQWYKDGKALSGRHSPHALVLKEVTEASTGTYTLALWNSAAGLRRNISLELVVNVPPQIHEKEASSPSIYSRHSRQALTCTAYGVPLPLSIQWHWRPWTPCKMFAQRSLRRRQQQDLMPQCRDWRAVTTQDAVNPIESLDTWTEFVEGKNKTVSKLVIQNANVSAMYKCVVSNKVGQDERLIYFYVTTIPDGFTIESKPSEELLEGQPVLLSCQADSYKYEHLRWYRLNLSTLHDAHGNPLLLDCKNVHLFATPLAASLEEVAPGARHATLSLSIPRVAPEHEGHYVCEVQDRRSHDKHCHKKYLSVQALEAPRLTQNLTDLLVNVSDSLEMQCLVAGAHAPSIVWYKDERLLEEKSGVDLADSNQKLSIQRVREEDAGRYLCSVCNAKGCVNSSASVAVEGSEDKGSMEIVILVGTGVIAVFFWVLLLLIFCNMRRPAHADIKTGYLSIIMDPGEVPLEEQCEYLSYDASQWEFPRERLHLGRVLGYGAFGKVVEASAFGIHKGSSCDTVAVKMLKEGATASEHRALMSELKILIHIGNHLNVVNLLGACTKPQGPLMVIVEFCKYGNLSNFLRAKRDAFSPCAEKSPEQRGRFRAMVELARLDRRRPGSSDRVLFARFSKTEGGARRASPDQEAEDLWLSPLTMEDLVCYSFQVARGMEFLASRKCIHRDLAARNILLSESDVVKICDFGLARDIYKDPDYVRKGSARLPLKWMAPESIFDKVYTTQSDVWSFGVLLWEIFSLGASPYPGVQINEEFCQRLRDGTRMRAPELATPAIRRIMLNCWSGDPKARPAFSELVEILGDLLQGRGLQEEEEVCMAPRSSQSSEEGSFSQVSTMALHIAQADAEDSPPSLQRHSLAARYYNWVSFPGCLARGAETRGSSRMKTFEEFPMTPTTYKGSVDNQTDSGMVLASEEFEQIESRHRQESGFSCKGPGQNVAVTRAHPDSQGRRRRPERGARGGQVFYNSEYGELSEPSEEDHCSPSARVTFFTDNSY
# Experimental: as §1
# VEGFR2 [4] = biological target: T1, VEGFR2; assay: Ten-dose IC50 measurement; format: biochemical; settings: 10μM ATP
# VEGFR3 [5] = biological target: T3, VEGFR3; assay: Ten-dose IC50 measurement; format: biochemical; settings: 10μM ATP
# [6] = test system: VEGF-A–induced sprouting of HUVECs; assay: HUVEC spheroid sprouting assay; format: cell-based, human; settings: for cumulative sprout length per spheroid (CSL), mean: 25 ng/mL VEGF-165, 24 hours
# Experimental: The three TKI compounds were tested by Reaction Biology Europe (Freiburg, Germany) in the spheroid-based cellular angiogenesis assay to determine their effect on VEGF-A–induced sprouting of HUVECs. Primary HUVECs from pooled donors at passage 3 to 4 (PromoCell, Heidelberg, Germany) were grown in endothelial cell growth and basal medium (ECGM/ECBM, PromoCell). Test compounds were prepared as 100-fold concentrated stock solutions in DMSO and pre-diluted in basal medium. HUVECs were stimulated using 25 ng/mL VEGF-165 (Reaction Biology Europe, Freiburg, Germany) pre-diluted in basal medium.
# Spheroids were prepared as described by pipetting 400 HUVECs in a hanging drop on plastic dishes to allow overnight spheroid aggregation. Fifty HUVEC spheroids were seeded in 0.9 mL of a collagen gel and pipetted into individual wells of a 24-well plate to allow polymerization. Test compounds and VEGF-165 were added after 30 minutes by pipetting 100 μL of a ten-fold concentrated solution onto the polymerized gel. Plates were incubated at 37°C for 24 hours, and cells were fixed by adding 4% paraformaldehyde (Roth, Karlsruhe, Germany). Sprouting intensity of HUVEC spheroids treated with the test samples was quantitated using an image analysis system to determine the cumulative sprout length (CSL) per spheroid. Images of single spheroids were captured using an inverted microscope and the digital imaging software NIS-Elements BR 3.0 (Nikon). Spheroid pictures were uploaded to Wimasis (www.wimasis.com) for image analysis. The CSL of each spheroid was determined using the imaging analysis tool WimSprout. The mean CSL of ten randomly selected spheroids was analyzed as an individual data point.
# VEGFR1 [7] = biological target: T4, VEGFR1 (Homo sapiens, UniProt P17948)
# T4 sequence (P17948 27-1338): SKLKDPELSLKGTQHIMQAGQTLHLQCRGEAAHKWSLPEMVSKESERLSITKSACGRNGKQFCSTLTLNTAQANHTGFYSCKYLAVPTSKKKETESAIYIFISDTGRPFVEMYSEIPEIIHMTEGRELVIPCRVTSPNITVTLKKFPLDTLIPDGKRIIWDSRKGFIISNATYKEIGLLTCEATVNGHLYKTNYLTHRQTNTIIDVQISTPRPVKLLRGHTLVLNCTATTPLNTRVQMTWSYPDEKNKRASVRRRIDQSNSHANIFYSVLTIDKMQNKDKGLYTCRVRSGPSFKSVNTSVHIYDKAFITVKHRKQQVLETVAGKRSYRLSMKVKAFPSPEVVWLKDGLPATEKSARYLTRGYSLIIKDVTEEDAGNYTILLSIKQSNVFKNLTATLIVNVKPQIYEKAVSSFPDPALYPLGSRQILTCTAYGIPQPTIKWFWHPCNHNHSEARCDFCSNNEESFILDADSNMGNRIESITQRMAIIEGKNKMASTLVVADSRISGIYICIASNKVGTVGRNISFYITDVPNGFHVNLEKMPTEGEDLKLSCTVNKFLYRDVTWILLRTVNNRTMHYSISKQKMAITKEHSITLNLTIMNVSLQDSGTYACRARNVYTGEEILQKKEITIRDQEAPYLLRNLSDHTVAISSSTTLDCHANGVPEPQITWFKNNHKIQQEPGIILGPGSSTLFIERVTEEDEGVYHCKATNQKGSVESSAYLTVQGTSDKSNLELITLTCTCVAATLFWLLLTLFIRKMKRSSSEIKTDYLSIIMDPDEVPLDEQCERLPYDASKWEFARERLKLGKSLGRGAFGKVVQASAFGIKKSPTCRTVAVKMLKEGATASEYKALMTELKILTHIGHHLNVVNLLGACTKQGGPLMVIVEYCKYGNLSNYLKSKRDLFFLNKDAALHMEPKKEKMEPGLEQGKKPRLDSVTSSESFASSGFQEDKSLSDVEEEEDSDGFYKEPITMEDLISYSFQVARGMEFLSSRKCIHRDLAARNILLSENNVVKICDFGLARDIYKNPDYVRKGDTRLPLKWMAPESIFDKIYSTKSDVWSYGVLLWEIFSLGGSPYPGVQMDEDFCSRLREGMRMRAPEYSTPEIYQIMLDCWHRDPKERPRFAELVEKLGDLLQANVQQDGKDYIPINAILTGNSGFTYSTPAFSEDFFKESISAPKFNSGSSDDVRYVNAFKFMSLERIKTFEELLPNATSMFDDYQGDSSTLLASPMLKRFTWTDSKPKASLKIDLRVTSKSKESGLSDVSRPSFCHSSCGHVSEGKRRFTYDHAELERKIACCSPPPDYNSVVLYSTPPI
# TIE2 [8] = biological target: T5, TIE2 (Homo sapiens, UniProt Q02763)
# T5 sequence (Q02763 23-1124): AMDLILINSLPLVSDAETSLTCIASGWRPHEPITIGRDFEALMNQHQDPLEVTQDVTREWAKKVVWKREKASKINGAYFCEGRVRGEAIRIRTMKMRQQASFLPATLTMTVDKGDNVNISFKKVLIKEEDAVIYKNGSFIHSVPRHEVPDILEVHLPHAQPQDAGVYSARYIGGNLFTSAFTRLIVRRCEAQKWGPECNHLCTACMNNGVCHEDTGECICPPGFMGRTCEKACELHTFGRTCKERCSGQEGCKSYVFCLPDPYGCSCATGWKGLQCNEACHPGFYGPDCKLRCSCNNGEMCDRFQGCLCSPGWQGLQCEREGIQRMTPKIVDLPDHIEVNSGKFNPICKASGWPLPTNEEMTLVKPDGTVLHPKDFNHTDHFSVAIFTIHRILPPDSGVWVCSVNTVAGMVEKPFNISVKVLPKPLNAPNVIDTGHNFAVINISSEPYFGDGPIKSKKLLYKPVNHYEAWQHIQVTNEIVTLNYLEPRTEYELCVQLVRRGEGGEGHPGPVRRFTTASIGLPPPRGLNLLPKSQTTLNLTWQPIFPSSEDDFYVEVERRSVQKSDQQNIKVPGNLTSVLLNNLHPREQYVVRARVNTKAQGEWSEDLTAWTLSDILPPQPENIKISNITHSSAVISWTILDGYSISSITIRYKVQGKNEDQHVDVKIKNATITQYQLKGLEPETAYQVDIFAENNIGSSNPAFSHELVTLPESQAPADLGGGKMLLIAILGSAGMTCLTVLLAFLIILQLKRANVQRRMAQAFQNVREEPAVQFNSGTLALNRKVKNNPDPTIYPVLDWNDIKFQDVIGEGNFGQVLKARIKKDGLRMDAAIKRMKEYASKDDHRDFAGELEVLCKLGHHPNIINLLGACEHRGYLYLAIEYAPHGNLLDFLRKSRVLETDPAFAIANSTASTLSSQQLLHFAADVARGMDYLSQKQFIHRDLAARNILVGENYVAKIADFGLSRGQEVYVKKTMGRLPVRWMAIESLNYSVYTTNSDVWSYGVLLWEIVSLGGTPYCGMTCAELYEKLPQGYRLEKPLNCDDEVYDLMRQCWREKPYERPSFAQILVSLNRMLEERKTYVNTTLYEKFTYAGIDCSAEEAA
# VEGFR1 [9] = biological target: T4, VEGFR1; assay: Ten-dose IC50 measurement; settings: 10μM ATP
# TIE2 [10] = biological target: T5, TIE2; assay: Ten-dose IC50 measurement; settings: 10μM ATP
# TIE2 [11] = biological target: T5, TIE2; assay: HotSpot kinase screen; format: biochemical; parameters: purchased Reaction Biology Corporation (contract assay); settings: 10μM ATP
# VEGFR1 [12] = biological target: T4, VEGFR1; assay: HotSpot kinase screen; format: biochemical; parameters: purchased Millipore Corporation (Dundee, Scotland) or Reaction Biology Corporation (contract assay); settings: 10μM ATP
# Experimental: as §1
# [13] = 0.5 mg/kg bevacizumab (20.15μM)
compound,measurement,setting,value
"Bevacizumab: known anti-VEGF antibody, reference compound (positive control) in the CAM assay","Angiogenesis - Vessel number, Mean",[1]; [13],11.4
same,"Angiogenesis - Vessel number, individual egg","[1]; 0.5 mg/kg bevacizumab (20.15μM), one value per egg",9.33 and 9.67
same,vessel reduction compared to the negative control,"[1]; 0.5 mg/kg bevacizumab (20.15μM), p = 0.05",18%
same,"Angiogenesis - Vessel thickness score, Mean",[1]; [13],0.8
same,"Angiogenesis - Vessel thickness score, individual egg",[1]; [13],1.33 and 0.33 and 1.67 and 0 and 1
CNC(=O)c1ccccc1Sc1ccc2c(/C=C/c3ccccn3)n[nH]c2c1 [Axitinib],Avg % Inhibition VEGFR2,VEGFR2 [2]; 1uM TKI,100%
same,Avg % Inhibition VEGFR2,VEGFR2 [2]; 10uM TKI,90.96%
same,Avg % Inhibition FGFR2,FGFR2; 1uM TKI,93.95%
same,Avg % Inhibition FGFR2,FGFR2; 10uM TKI,98.81%
same,Avg % Inhibition VEGFR3,VEGFR3 [3]; 1uM TKI,97.27%
same,Avg % Inhibition VEGFR3,VEGFR3 [3]; 10uM TKI,99.21%
same,%Activity VEGFR2,VEGFR2 [4]; 1.00E-05 M TKI,7.43%
same,%Activity VEGFR2,VEGFR2 [4]; 1.11E-06 M TKI,4.53%
same,%Activity VEGFR2,VEGFR2 [4]; 1.23E-07 M TKI,7.10%
same,%Activity VEGFR2,VEGFR2 [4]; 1.37E-08 M TKI,13.24%
same,%Activity VEGFR2,VEGFR2 [4]; 1.52E-09 M TKI,62.16%
same,%Activity VEGFR2,VEGFR2 [4]; 3.33E-06 M TKI,6.81%
same,%Activity VEGFR2,VEGFR2 [4]; 3.70E-07 M TKI,7.21%
same,%Activity VEGFR2,VEGFR2 [4]; 4.12E-08 M TKI,8.44%
same,%Activity VEGFR2,VEGFR2 [4]; 4.57E-09 M TKI,25.12%
same,%Activity VEGFR2,VEGFR2 [4]; 5.08E-10 M TKI,84.02%
same,HillSlope VEGFR2,VEGFR2 [4]; IC50 curve fit,-1.18
same,%Activity VEGFR3,VEGFR3 [5]; 1.00E-05 M TKI,2.02%
same,%Activity VEGFR3,VEGFR3 [5]; 1.11E-06 M TKI,2.44%
same,%Activity VEGFR3,VEGFR3 [5]; 1.37E-08 M TKI,28.96%
same,%Activity VEGFR3,VEGFR3 [5]; 1.52E-09 M TKI,56.16%
same,%Activity VEGFR3,VEGFR3 [5]; 3.33E-06 M TKI,1.23%
same,%Activity VEGFR3,VEGFR3 [5]; 3.70E-07 M TKI,5.72%
same,%Activity VEGFR3,VEGFR3 [5]; 4.57E-09 M TKI,40.16%
same,%Activity VEGFR3,VEGFR3 [5]; 5.08E-10 M TKI,63.17%
same,"cumulative sprout length per spheroid (CSL), mean",[6]; 1.00E-05 M TKI,259
same,"cumulative sprout length per spheroid (CSL), mean",[6]; 1.00E-06 M TKI,441
same,"cumulative sprout length per spheroid (CSL), mean",[6]; 1.00E-07 M TKI,459
same,"cumulative sprout length per spheroid (CSL), mean",[6]; 3.00E-06 M TKI,354
same,"cumulative sprout length per spheroid (CSL), mean",[6]; 3.00E-07 M TKI,373
same,"cumulative sprout length per spheroid (CSL), mean",[6]; 3.00E-08 M TKI,379
same,vessel sprouting (representative spheroid images),[6]; highest test concentration of 1×10^–5M,zero vessel sprouting
same,activity,VEGFR1 [7],5.07%
same,activity,TIE2 [8],60.1%
same,%Activity VEGFR1,VEGFR1 [9]; 1.00E-05 M TKI,-0.87%
same,%Activity VEGFR1,VEGFR1 [9]; 1.11E-06 M TKI,-0.31%
same,%Activity VEGFR1,VEGFR1 [9]; 1.37E-08 M TKI,18.99%
same,%Activity VEGFR1,VEGFR1 [9]; 1.52E-09 M TKI,42.18%
same,%Activity VEGFR1,VEGFR1 [9]; 3.33E-06 M TKI,-0.89%
same,%Activity VEGFR1,VEGFR1 [9]; 4.12E-08 M TKI,9.96%
same,%Activity VEGFR1,VEGFR1 [9]; 4.57E-09 M TKI,22.02%
same,%Activity VEGFR1,VEGFR1 [9]; 5.08E-10 M TKI,59.50%
same,%Activity TIE2,TIE2 [10]; 1.00E-05 M TKI,10.50%
same,%Activity TIE2,TIE2 [10]; 1.11E-06 M TKI,16.32%
same,%Activity TIE2,TIE2 [10]; 1.37E-08 M TKI,87.12%
same,%Activity TIE2,TIE2 [10]; 1.52E-09 M TKI,98.75%
same,%Activity TIE2,TIE2 [10]; 3.33E-06 M TKI,7.06%
same,%Activity TIE2,TIE2 [10]; 3.70E-07 M TKI,38.01%
same,%Activity TIE2,TIE2 [10]; 4.12E-08 M TKI,78.65%
same,%Activity TIE2,TIE2 [10]; 4.57E-09 M TKI,95.05%
same,%Activity TIE2,TIE2 [10]; 5.08E-10 M TKI,95.58%
same,Avg % Inhibition TIE2,TIE2 [11]; 1uM TKI,81% and 81.47%
same,Avg % Inhibition TIE2,TIE2 [11]; 10uM TKI,89% and 89.11%
same,Avg % Inhibition TIE2,"TIE2 [11]; 10uM TKI, listed as axitinib",up to 89%
same,"Angiogenesis - Vessel number, Mean",[1]; TKI at 200 x VEGFR2 IC50,11.1
same,"Angiogenesis - Vessel number, individual egg","[1]; TKI at 200 x VEGFR2 IC50, one value per egg",9.33 and 12.67 and 12 and 10.33
same,reduction of the number of blood vessels perfusing the sponges vs negative control,[1]; TKI at VEGFR2 IC50 dose,24.6%
same,"Angiogenesis - Vessel thickness score, Mean",[1]; TKI at VEGFR2 IC50 dose,0.9
same,"Angiogenesis - Vessel thickness score, individual egg",[1]; TKI at VEGFR2 IC50 dose,0.33 and 1.33 and 0 and 1.67
same,Avg % Inhibition VEGFR1,VEGFR1 [12]; 1uM TKI,100%
same,Avg % Inhibition VEGFR1,VEGFR1 [12]; 10uM TKI,97.53%
